# Test results: US20180051316A1, “DETECTION OF NUCLEIC ACID POLYMERASE CONFORMATIONAL CHANGES USING A NANOTUBE” (priority 2014, published 2018)
# “And” between values parts separate entries of the source, which are not always exact repeats. Identical values can stand only once. “Also recorded” adds a separate entry of the source. Like-named read-outs stand apart in the source and are kept apart here. Marks after values point to notes of the source that are not given here.
# Experiments:
# [1] = biological target: T1, DNA polymerase I (Klenow Fragment) (Escherichia coli, UniProt P00582, C907S/D355A/E357A/L790C); format: biochemical; details: for k: k=(<τopen>+<τclosed>)^−1; for <τclosed> / <τopen>: native dNTP 10 μM, analog 100 μM, average ± standard deviation; for frequency of ΔI(t) excursions relative to dGTP: complementary template-primer; for τopen events deviating from the single exponential fit / τopen events encompassed by single exponential fit: poly(dC)42; for τopen events encompassed by single exponential fit: more than 50 s of polymerization data; for direction of ΔI(t) excursions: poly(dC)42 template; for time constant of second exponential fit to tail of τopen distribution: poly(dC)42 template (FIG. 3B); for direction of current spike ΔI per base incorporation: KF processing poly(dA)42
# T1 construct: Single copies of the Klenow Fragment (KF) of DNA polymerase I were attached to single-walled carbon nanotube devices; made in house; host or cells: E. coli BL21(DE3)
# Description: In embodiments, SWCNT-FETs are fabricated and functionalized with a single-cysteine variant of exonuclease-deficient KF (D355A/E357A/L790C/C907S). […] Attachment of KF to SWCNT-FETs is accomplished by soaking the devices in a solution of N-(1-pyrenyl)maleimide (1 mM in ethanol, 30 min), followed by incubation with KF (300 nM KF in a standard KF activity buffer of 20 mM Tris, 50 mM NaCl, 10 mM MgCl2, 100 μM TCEP, pH 8.0). […] Such devices are referred to simply as KF nanocircuits.
# In embodiments, homopolymeric templates poly(dA)42, poly(dT)42, poly(dG)42, or poly(dC)42 mixed with complementary dNTP analogs are used for detecting conformational change of a polymerase, e.g., DNA polymerase. In embodiments, each template is fused to an M13 priming site and mixed with an M13 forward primer in a 1:1 stoichiometric ratio; for hybridization, the mixture is heated in a thermal cycler to 95° C. for 5 to 10 min followed by cooling to 65° C. then further cooling with a gradient of 5° C. every five min until reaching room temperature. In embodiments, KF nanocircuits are immersed in activity buffer with the annealed template-primer at 100 nM concentrations. Native or analog dNTPs are added to the buffer in excess, ensuring Vmax conditions for KF catalysis.
# In embodiments, measurements consist of monitoring the source-drain current, I(t), through the SWCNT-FET while the attached KF molecule interacted with its surrounding environment. […] In embodiments, I(t) fluctuations are amplified, digitized at 100 kHz, and stored as uninterrupted, 600 s. Between measurements, the KF nanocircuits may be rinsed twice with activity buffer, incubated in buffer for 5 min, then rinsed twice with buffer before introducing another nucleotide and template-primer.
# SWCNT FETs were fabricated and functionalized with a single cysteine variant of exonuclease-deficient KF. […] [20,21]
# For each measurement, dNTPs were chosen to complement the homopolymeric templates poly(dA)42, poly(dT)42, poly(dG)42, and poly(dC)42. Each template was fused to an M13 priming site and mixed with an M13 forward primer in a 1:1 stoichiometric ratio; for hybridization, the mixture was heated to 95° C. for 5 to 10 minutes followed by cooling to room temperature. SWCNT FETs were immersed in a standard DNA Pol I activity buffer (20 mM Tris, 50 mM NaCl, 10 mM MgCl2, 100 μM TCEP, pH 8.0) with the template-primer hybrid at 100 nM concentration. Native or analog dNTPs were added to the buffer in excess, ensuring Vmax conditions for KF.
# Measurements consisted of monitoring the source-drain current I(t) of a SWCNT FET while the attached KF molecule interacted with its surrounding environment.
# [2] = biological target: T2, KF (Escherichia coli, UniProt P00582, C907S/D355A/E357A/L790C); format: biochemical; details: 100 μM analog, 25° C., 2 h
# T2 construct: Single copies of the Klenow Fragment (KF) of DNA polymerase I were attached to single-walled carbon nanotube devices; made in house; host or cells: E. coli BL21(DE3)
# Description: Polymerization products with dNTP analogs and the A/T incorporation template (FIG. 8A) or the G/C incorporation template (FIG. 8B) were electrophoresed on a 5% high-resolution agarose gel. […] After visualization, the image colors were inverted, then changed to black and white.
# Positive control reactions contained KF (1 μM), dNTPs or dNTP analogs (100 μM), and A/T or G/C incorporation template-primer (5 μM) in 10 mM Tris, 50 mM NaCl, 10 mM MgCl2, 1 mM DTT, pH 7.9. Reactions to test dNTP analog incorporation contained 100 μM analog in place of its native dNTP, and negative control reactions omitted either the analog or its native dNTP. Reactions were kept at 25° C. for 2 h in a thermal cycler before electrophoresis on a 5% high resolution agarose gel (FIG. 8B).
# [3] = complementary homopolymeric template
# T2 sequence (P00582 324-928 D355A/E357A/L790C/C907S): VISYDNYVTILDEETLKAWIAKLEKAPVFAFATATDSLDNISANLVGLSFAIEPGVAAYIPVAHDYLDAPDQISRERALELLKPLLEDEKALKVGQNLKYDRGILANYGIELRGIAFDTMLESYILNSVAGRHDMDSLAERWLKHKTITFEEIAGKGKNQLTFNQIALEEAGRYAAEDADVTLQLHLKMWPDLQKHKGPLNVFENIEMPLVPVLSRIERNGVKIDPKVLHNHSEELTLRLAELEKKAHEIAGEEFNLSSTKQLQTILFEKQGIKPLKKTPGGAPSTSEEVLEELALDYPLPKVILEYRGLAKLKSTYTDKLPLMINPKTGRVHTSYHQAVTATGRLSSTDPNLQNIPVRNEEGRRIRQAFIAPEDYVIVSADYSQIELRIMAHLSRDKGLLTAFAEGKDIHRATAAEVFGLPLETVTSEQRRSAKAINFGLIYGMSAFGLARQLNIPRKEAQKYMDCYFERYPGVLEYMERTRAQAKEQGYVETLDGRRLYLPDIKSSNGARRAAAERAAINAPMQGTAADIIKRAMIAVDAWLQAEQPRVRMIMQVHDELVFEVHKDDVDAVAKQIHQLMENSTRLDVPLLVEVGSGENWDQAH
# T1 sequence (P00582 324-928 D355A/E357A/L790C/C907S): as above
compound,measurement,setting,value
Nc1ccn([C@H]2C[C@H](O)[C@@H](COP(=O)(O)OP(=O)(O)OP(=O)(O)O)O2)c(=O)n1 [dCTP],k,[1]; template poly(dG)42,23.2 ± 3.2 s⁻¹
same,<τclosed>,[1]; template poly(dG)42,0.35 ± 0.20 ms
same,<τopen>,[1]; template poly(dG)42,42.8 ± 5.0 ms
"Nc1nc(Cl)c2ncn([C@H]3C[C@H](O)[C@@H](COP(=O)(O)OP(=O)(O)OP(=O)(O)O)O3)c2n1 [6-Cl-2APTP, 2-amino-6-Cl-purine-2′-deoxyriboside-triphosphate]",average KF processing rate k for dNTP incorporation,[1]; [3],20 s⁻¹
same,enzyme closure time τclosed compared to native dNTPs,[1]; [3],no difference
same,rate of incorporation compared with native dNTPs,[1]; [3],compared most favorably to the slowest rates observed for native dGTP incorporation; also recorded: more quickly than native dATP
same,τopen relative to native dNTP (times longer),[1]; [3],about twice as long
same,frequency of ΔI(t) excursions relative to dGTP,[1],two to three times less frequently
same,direction of ΔI(t) current fluctuations,[1]; complementary template-primers,positive current fluctuations
same,direction of current spikes,"[1]; heterogeneous substrates, nucleotide mixtures (FIG. 5A, 5C)",positive current spikes
same,direction of ΔI(t) signals,[1]; opposite both poly(dC)42 and poly(dT)42 templates,inverted amplitude
same,rate of ΔI(t) excursions relative to dGTP,[1]; opposite poly(dC)42,80%
same,τopen events deviating from the single exponential fit,[1],Approximately twenty-five percent
same,τopen events encompassed by single exponential fit,[1],≈ 75%
same,direction of ΔI(t) excursions,[1],Positive ΔI(t) excursions
same,time constant of second exponential fit to tail of τopen distribution,[1],200 ms
same,k,[1]; template poly(dC)42,19.7 ± 0.6 s⁻¹
same,<τclosed>,[1]; template poly(dC)42,0.20 ± 0.12 ms
same,<τopen>,[1]; template poly(dC)42,50.5 ± 1.4 ms
same,<τopen>,"[1]; template poly(dC)42, listed as 6-Cl-dGTP",50 ± 1 ms
same,"incorporation into dsDNA, native counterpart omitted",[2]; A/T incorporation template,incorporated opposite the template base T
same,"incorporation into dsDNA, native counterpart omitted",[2]; G/C incorporation template,incorporated opposite the template base C
Cc1cn([C@H]2C[C@H](O)[C@@H](COP(O)(=S)OP(=O)(O)OP(=O)(O)O)O2)c(=O)[nH]c1=O (stereo partly drawn) [α-thio-dTTP],average KF processing rate k for dNTP incorporation,[1]; [3],7 s⁻¹
same,k,[1]; template poly(dA)42,6.6 ± 0.3 s⁻¹
same,<τclosed>,[1]; template poly(dA)42,0.29 ± 0.13 ms
same,<τopen>,[1]; template poly(dA)42,152.1 ± 6.6 ms
same,"incorporation into dsDNA, native counterpart omitted",[2]; A/T incorporation template,incorporated opposite the template base A
Nc1ccn([C@H]2C[C@H](O)[C@@H](COP(O)(=S)OP(=O)(O)OP(=O)(O)O)O2)c(=O)n1 (stereo partly drawn) [α-thio-dCTP],average KF processing rate k for dNTP incorporation,[1]; [3],15 s⁻¹
same,k,[1]; template poly(dG)42,14.5 ± 1.0 s⁻¹
same,<τclosed>,[1]; template poly(dG)42,0.33 ± 0.19 ms
same,<τopen>,[1]; template poly(dG)42,68.8 ± 4.6 ms
same,"incorporation into dsDNA, native counterpart omitted",[2]; G/C incorporation template,incorporated opposite the template base G
Nc1nc2c(ncn2[C@H]2C[C@H](O)[C@@H](COP(=O)(O)OP(=O)(O)OP(=O)(O)O)O2)c(=O)[nH]1 [dGTP],average KF processing rate k for dNTP incorporation,[1]; [3],41 s⁻¹
same,τopen events encompassed by single exponential fit,[1],> 90%
same,direction of ΔI(t) excursions,[1],negative ΔI(t) excursions
same,k,[1]; template poly(dC)42,24.3 ± 4.3 s⁻¹
same,<τclosed>,[1]; template poly(dC)42,0.40 ± 0.20 ms
same,<τopen>,[1]; template poly(dC)42,40.8 ± 6.0 ms
"Cc1cn([C@H]2C[C@H](O)[C@@H](COP(=O)(O)OP(=O)(O)OP(=O)(O)O)O2)c(=S)[nH]c1=O [2-thio-dTTP, 2-thio-2′-deoxythimidine-5′-triphosphate]",direction of current spike ΔI per base incorporation,[1],positive current spikes ΔI>0
same,average KF processing rate k for dNTP incorporation,[1]; [3],16 s⁻¹
same,enzyme closure time τclosed compared to native dNTPs,[1]; [3],no difference
same,rate of incorporation compared with native dNTPs,[1]; [3],slightly faster; also recorded: approximately the same
same,k,[1]; template poly(dA)42,16.3 ± 0.9^b 1/s
same,<τclosed>,[1]; template poly(dA)42,0.23 ± 0.14^b ms
same,<τopen>,[1]; template poly(dA)42,61.1 ± 3.2^b ms
same,"incorporation into dsDNA, native counterpart omitted",[2]; A/T incorporation template,incorporated opposite the template base A
Nc1ncnc2c1ncn2[C@H]1C[C@H](O)[C@@H](COP(O)(=S)OP(=O)(O)OP(=O)(O)O)O1 (stereo partly drawn) [α-thio-dATP],effect of lower analog concentration on DNA polymerization,"[1]; 10 μM analog instead of 100 μM, poly(dT)42 template",did not affect DNA polymerization
same,average KF processing rate k for dNTP incorporation,[1]; [3],7 s⁻¹
same,k,[1]; template poly(dT)42,6.8 ± 0.4 s⁻¹
same,<τclosed>,[1]; template poly(dT)42,0.38 ± 0.21 ms
same,<τopen>,[1]; template poly(dT)42,145 ms and 145.9 ± 8.4 ms
same,"incorporation into dsDNA, native counterpart omitted",[2]; A/T incorporation template,incorporated opposite the template base T
Nc1nc2c(ncn2[C@H]2C[C@H](O)[C@@H](COP(O)(=S)OP(=O)(O)OP(=O)(O)O)O2)c(=O)[nH]1 (stereo partly drawn) [α-thio-dGTP],average KF processing rate k for dNTP incorporation,[1]; [3],15 s⁻¹
same,increase of <τopen> relative to native dNTP,[1]; [3],56%
same,τopen relative to native dNTP (times longer),[1]; [3],approximately 2.5
same,frequency of ΔI(t) excursions relative to dGTP,[1],two to three times less frequently
same,τopen events deviating from the single exponential fit,[1],Approximately twenty-five percent
same,τopen events encompassed by single exponential fit,[1],≈ 75%
same,time constant of second exponential fit to tail of τopen distribution,[1],200 ms
same,k,[1]; template poly(dC)42,15.7 ± 0.7 s⁻¹
same,<τclosed>,[1]; template poly(dC)42,0.21 ± 0.15 ms
same,<τopen>,[1]; template poly(dC)42,63 ± 3 ms and 63.6 ± 2.8 ms
same,"incorporation into dsDNA, native counterpart omitted",[2]; G/C incorporation template,incorporated opposite the template base C
Nc1ncnc2c1ncn2[C@H]1C[C@H](O)[C@@H](COP(=O)(O)OP(=O)(O)OP(=O)(O)O)O1 [dATP],k,[1]; template poly(dT)42,16.8 ± 0.4 s⁻¹
same,<τclosed>,[1]; template poly(dT)42,0.34 ± 0.18 ms
same,<τopen>,[1]; template poly(dT)42,58.9 ± 1.2 ms
Nc1ccn([C@H]2C[C@H](O)[C@@H](COP(=O)(O)OP(=O)(O)OP(=O)(O)O)O2)c(=S)n1 [2-thio-dCTP],enzyme closure time τclosed compared to native dNTPs,[1]; [3],no difference
same,rate of incorporation compared with native dNTPs,[1]; [3],slightly faster; also recorded: approximately the same
same,k,[1]; template poly(dG)42,30.6 ± 1.2^b 1/s
same,<τclosed>,[1]; template poly(dG)42,0.41 ± 0.15^b ms
same,<τopen>,[1]; template poly(dG)42,32.3 ± 1.1^b ms
same,"incorporation into dsDNA, native counterpart omitted",[2]; G/C incorporation template,incorporated opposite the template base G
"Cc1cn([C@H]2C[C@H](O)[C@@H](COP(=O)(O)OP(=O)(O)OP(=O)(O)O)O2)c(=O)[nH]c1=O [dTTP, deoxythymidine triphosphate]",direction of current spike ΔI per base incorporation,[1],negative current spike ΔI<0
same,k,[1]; template poly(dA)42,14.3 ± 0.5 s⁻¹
same,<τclosed>,[1]; template poly(dA)42,0.33 ± 0.12 ms
same,<τopen>,[1]; template poly(dA)42,69.6 ± 2.3 ms
